According to patent US20250145565A1 (BATTERJEE MEDICAL COLLEGE, priority 2021, published 2025):
Where two headings read alike, the source gives them in different places.

Legend:
Type in all cases: biochemical
ALDH2 = ALDH2 (Homo sapiens (Human), UniProt P05091); experiment: ALDH assay (diaphorase/resazurin), ALDH2 inhibition
Description: (§1) ALDH catalyzes the oxidation of acetaldehyde to acetic acid while reducing NAD+ to NADH. The formation of NADH is fluorescently detected using diaphorase/resazurin system. Diaphorase utilizes NADH formed from ALDH reaction to produce the fluorescent molecule resorufin from resazurin. See Davis, M. I.; Shen, M.; Simeonov, A.; Hall, M. D., Diaphorase Coupling Protocols for Red-Shifting Dehydrogenase Assays.
(§2) The reagent ALDH1a1 is from R&D Systems (Minneapolis, MN). ALDH2 is from Prospect Bio (East Brunswick, NJ). Acetaldehyde is from Cayman Chemicals (Ann Arbor, MI). NAD^+, and Resazurin sodium salt are from Sigma (St. Louis, MO). Diaphorase is from Reaction Biology (Malvern PA). Zaba micro spin columns are from ThermoFisher scientific (Waltham, MA). […] Desalted samples from each enzyme were pooled together and placed in ice until use. Reaction buffer (50 mM sodium pyrophosphate buffer at pH 8.8, 0.01% Brij35) degassed using vacuum for 10 mins until no visible air bubbles were seen.
(§3) 5 μl of reaction buffer was delivered to ‘no enzyme’ background control wells. Test compounds were prepared in 100% DMSO by serial dilution in 100× of assay concentration. After adding the test compounds, reaction plate was centrifuged briefly in 1200 rpm, then incubated for 20 min at room temperature, to pre-incubate enzyme and compounds. […] Reaction plate was briefly centrifuged and sealed with a plastic film to limit evaporation. After incubation at room temperature for 60 min, 10 μl of detection reagent (15 μg/ml diaphorase, 30 μM resazurin prepared in the degassed reaction buffer) was added. Reaction plate was briefly centrifuged and incubated for 10 minutes at room temperature in the dark.

ALDH1a1 = ALDH1a1 (Homo sapiens (Human), UniProt P00352); experiment: ALDH assay (diaphorase/resazurin), ALDH1a1 inhibition
Sequence of ALDH1a1 (P00352 whole entry): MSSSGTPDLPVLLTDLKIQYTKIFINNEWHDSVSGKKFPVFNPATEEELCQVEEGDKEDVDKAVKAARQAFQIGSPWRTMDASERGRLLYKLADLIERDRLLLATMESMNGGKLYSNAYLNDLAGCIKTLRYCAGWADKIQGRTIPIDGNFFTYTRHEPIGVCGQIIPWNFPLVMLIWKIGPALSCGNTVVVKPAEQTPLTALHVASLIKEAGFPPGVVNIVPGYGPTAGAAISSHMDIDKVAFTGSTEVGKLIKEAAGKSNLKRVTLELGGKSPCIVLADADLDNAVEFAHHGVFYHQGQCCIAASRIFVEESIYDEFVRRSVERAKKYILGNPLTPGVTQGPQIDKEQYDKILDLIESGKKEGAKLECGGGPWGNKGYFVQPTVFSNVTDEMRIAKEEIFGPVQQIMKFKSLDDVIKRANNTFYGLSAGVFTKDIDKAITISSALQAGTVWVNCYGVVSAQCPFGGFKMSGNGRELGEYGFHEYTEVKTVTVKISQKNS
Description: as §1, §2, §3

human FAAH (hFAAH) = human FAAH (hFAAH) (Homo sapiens (Human), UniProt O00519); experiment: FAAH enzyme inhibition assay (Cayman kit, AMC-arachidonoyl amide); conditions: for IC50: Table II, average of at least two experiments, read-out: IC50 (μM) ± SE (hFAAH)
Sequence of human FAAH (hFAAH) (O00519 whole entry): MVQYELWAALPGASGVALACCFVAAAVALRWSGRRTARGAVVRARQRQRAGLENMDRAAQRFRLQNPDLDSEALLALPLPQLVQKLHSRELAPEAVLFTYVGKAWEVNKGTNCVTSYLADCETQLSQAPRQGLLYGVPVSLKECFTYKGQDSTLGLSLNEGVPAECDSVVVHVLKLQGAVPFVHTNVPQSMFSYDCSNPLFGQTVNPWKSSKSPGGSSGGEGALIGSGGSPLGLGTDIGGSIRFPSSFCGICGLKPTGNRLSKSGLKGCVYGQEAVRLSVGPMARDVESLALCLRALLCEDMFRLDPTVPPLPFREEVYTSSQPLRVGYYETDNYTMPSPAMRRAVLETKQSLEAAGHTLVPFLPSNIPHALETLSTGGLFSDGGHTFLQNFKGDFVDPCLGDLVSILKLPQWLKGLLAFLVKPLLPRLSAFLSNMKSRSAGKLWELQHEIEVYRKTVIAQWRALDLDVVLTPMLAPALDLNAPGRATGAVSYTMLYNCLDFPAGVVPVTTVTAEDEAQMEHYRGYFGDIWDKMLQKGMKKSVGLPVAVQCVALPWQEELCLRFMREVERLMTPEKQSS
Procedure: FAAH inhibition assay was performed using Fatty Acid Amide Hydrolase Inhibitor Screening Assay Kit (Item #10005196), Cayman (1180 E Ellsworth Rd Ann Arbor, MI, USA). […] Manufacturer's protocol was followed to perform the assay. The assay buffer (125 mM Tri-HCl with 1 mM EDTA, pH 9.0) was used to dilute the FAAH human recombinant enzyme. AMC-Arachidonoyl amide, at a concentration of 400 μM was then used as the FAAH substrate. Samples were mixed for 30 s and incubated at 37° C. for 30 min. The fluorescent by-product AMC (7-amino-4-methylcoumarin) released by the FAAH enzyme was detected and quantified at an excitation wavelength of 355 nm and emission wavelength of 460 nm.

human MAGL (hMAGL) = human MAGL (hMAGL) (Homo sapiens (Human), UniProt Q99685); experiment: MAGL enzyme inhibition assay (4-nitrophenylacetate); conditions: for IC50: Table II, average of at least two experiments, read-out: IC50 (μM) ± SE (hMAGL); for decrease in inhibitory activity against MAGL: relative to disulfiram / unsubstituted analog
Sequence of human MAGL (hMAGL) (Q99685 whole entry): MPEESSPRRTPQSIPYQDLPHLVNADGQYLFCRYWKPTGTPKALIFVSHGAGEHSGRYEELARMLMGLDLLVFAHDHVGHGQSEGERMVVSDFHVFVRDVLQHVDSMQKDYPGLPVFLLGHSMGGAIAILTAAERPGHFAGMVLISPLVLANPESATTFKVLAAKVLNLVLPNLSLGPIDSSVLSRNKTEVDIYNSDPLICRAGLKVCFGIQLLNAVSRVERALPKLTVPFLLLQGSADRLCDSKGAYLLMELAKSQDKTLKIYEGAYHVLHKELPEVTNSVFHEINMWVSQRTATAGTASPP
Procedure: The plate was mixed for 30 s and incubated at room temperature for 30 min.

[1] = Table III, read-out: Aldh1a1 (IC50, μM) ± SE
[2] = Table IA, mean of at least two independent experiments, read-out: IC50 (μM) ± SE (ALDH1a1)
[3] = Table IB, mean of at least two independent experiments, read-out: IC50 (μM) ± SE (ALDH2)

Sequence of ALDH2 (P05091 18-517): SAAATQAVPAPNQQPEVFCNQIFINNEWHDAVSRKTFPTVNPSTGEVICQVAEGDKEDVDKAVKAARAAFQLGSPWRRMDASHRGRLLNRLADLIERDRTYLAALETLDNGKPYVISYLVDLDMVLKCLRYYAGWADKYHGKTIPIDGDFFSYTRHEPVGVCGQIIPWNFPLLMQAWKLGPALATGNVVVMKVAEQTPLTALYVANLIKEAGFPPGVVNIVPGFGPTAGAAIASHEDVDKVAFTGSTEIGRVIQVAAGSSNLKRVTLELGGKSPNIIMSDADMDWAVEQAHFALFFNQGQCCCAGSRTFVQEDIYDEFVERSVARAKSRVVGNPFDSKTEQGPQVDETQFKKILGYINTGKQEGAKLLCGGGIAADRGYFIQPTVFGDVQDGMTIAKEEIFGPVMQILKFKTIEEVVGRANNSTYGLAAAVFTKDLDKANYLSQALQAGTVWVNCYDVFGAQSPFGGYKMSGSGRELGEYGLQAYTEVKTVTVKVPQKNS

`CCN(Cc1ccc(OC)cc1)C(=S)SSC(=S)N(CC)Cc1ccc(OC)cc1` was tested, and the “Aldh2 (IC50, μM) ± SE” value (ALDH2; Table III) was “No inhibition” and the IC50 (ALDH1a1; [1]) was 0.58 ± 0.41 µM.

In the case of `NCCS` [Compound 3, Cysteamine, reference compound], the “ALDH2 inhibitory activity (in words)” value (ALDH2) is reported as “none of them showed any activity” and the “activity against ALDH1a1 (in words)” value (ALDH1a1) is reported as “none of them showed any activity”.

For `NCCSSCCN` [Compound 4, Cystamine, reference compound], the “ALDH2 inhibitory activity (in words)” value (ALDH2) was “none of them showed any activity”, the “activity against ALDH1a1 (in words)” value (ALDH1a1) was “none of them showed any activity” and the IC50 (ALDH1a1; [2]) was over 100 µM.

In the case of `CCN(Cc1ccc(C(=O)O)cc1)C(=S)SSC(=S)N(CC)Cc1ccc(C(=O)O)cc1` [Compound I-2d], the “FAAH inhibitory activity (in words)” value (human FAAH (hFAAH)) is reported as “devoid of anti-FAAH activity”, the IC50 (human MAGL (hMAGL)) is reported as 22.6 ± 16.8 µM and the “decrease in inhibitory activity against MAGL” value (human MAGL (hMAGL)) is reported as 20 fold. For the same compound, the IC50 (ALDH2; [3]) was 99.36 ± 0.64 µM, the IC50 (ALDH1a1; [2]) was 2.96 ± 1.52 µM and the “decrease in ALDH1a1 inhibitory activity” value (ALDH1a1; relative to I-2a) was “tenfold decrease”.

Work on `CCN(CCC(=O)O)C(=S)SSC(=S)N(CC)CCC(=O)O` [Compound I-2e, bis(N-carboxylethylethylthiocarbamoyl)disulfide] yielded an IC50 (human FAAH (hFAAH)) of 12.8 ± 1.57 µM, an IC50 (human MAGL (hMAGL)) of 0.87 ± 0.21 µM and an IC50 (ALDH2; [3]) of 0.85 ± 0.55 µM. The IC50 (ALDH1a1; [2]) was 0.15 ± 0.14 µM.

With `CCN(CCO)C(=S)SSC(=S)N(CC)CCO` [Compound I-2f, bis(N-hydroxyethylethylthiocarbamoyl)disulfide] the IC50 (human FAAH (hFAAH)) was 25.4 ± 3.26 µM, the IC50 (human MAGL (hMAGL)) was 0.72 ± 0.2 µM and the IC50 (ALDH2; [3]) was 25.7 ± 12.3 µM. It also gave an IC50 (ALDH1a1; [2]) of 2.54 ± 1.15 µM.

`CN(C)C(=S)SSC(=S)N(C)C` [Compound I-2g, reference compound] gave an IC50 (ALDH2; [3]) of 0.32 ± 0.04 µM and an IC50 (ALDH1a1; [2]) of 0.02 ± 0.01 µM.

Work on `CC(C)N(C(=S)SSC(=S)N(C(C)C)C(C)C)C(C)C` [Compound I-2h, reference compound] yielded an IC50 (human MAGL (hMAGL)) of 1.89 ± 0.37 µM, an IC50 (ALDH2; [3]) of over 100 µM and an IC50 (ALDH1a1; [2]) of 2.85 ± 1.08 µM.

In the case of `CC(C)CN(CC(C)C)C(=S)SSC(=S)N(CC(C)C)CC(C)C` [Compound I-2j, reference compound], the “FAAH inhibitory activity (in words)” value (human FAAH (hFAAH)) is reported as “no inhibition”, the IC50 (human MAGL (hMAGL)) is reported as 13.4 ± 4.79 µM and the “hydrolytic activity of inhibited MAGL upon addition of dithiothreitol” value (human MAGL (hMAGL); dithiothreitol (10 mM)) is reported as “restored”. For the same compound, the “decrease in inhibitory activity against MAGL” value (human MAGL (hMAGL)) was “up to 15 fold”, the “activity against ALDH1a1 (in words)” value (ALDH1a1) was “complete loss of activity” and the IC50 (ALDH1a1; [2]) was over 100 µM.

`CCOCCNC(=S)SSC(=S)NCCOCC` [Compound I-2m, reference compound] gave an IC50 (ALDH1a1; [2]) of 0.04 ± 0.03 µM.

`CCN(CC)C(=S)SSC(=S)N(CC)CC` [Disulfiram, reference compound] was tested, and the IC50 (human FAAH (hFAAH); listed as II-2a) was 36.2 ± 11 µM and the IC50 (human MAGL (hMAGL)) was 0.95 ± 0.26 µM.

Compound `CCOC(=O)CCN(CC)C(=S)SSC(=S)N(CC)CCC(=O)OCC` [II-2g, bis(N-ethoxycarbonylethylethylthiocarbamoyl)disulphide] has an IC50 (human FAAH (hFAAH)) of 10.1 ± 0.68 µM and an IC50 (human MAGL (hMAGL)) of 3.53 ± 1.32 µM.

`CCN(Cc1ccc(C(F)(F)F)cc1)C(=S)SSC(=S)N(CC)Cc1ccc(C(F)(F)F)cc1` [III-1n, bis(N-4-trifluoromethylbenzylethylthiocarbamoyl)disulphide] was tested, and the “Aldh2 (IC50, μM) ± SE” value (ALDH2; Table III) was “No inhibition” and the “Aldh1a1 (IC50, μM) ± SE” value (ALDH1a1; Table III) was “No inhibititon”.

`CCN(Cc1ccncc1)C(=S)SSC(=S)N(CC)Cc1ccncc1` [III-2o, bis(N-(4-pyridylmethyl)ethylthiocarbamoyl) disulphide] was tested, and the “Aldh2 (IC50, μM) ± SE” value (ALDH2; Table III) was “No inhibition” and the IC50 (ALDH1a1; [1]) was 5.76 ± 4.01 µM.

In the case of `CCN(Cc1ccco1)C(=S)SSC(=S)N(CC)Cc1ccco1` [III-2p, bis(N-(2-furylmethyl)ethylthiocarbamoyl)disulphide], the IC50 (ALDH2; Table III, read-out: Aldh2 (IC50, μM) ± SE) is reported as 200 ± 129 µM and the IC50 (ALDH1a1; [1]) is reported as 0.39 ± 0.27 µM.

In the case of `CCN(Cc1cccs1)C(=S)SSC(=S)N(CC)Cc1cccs1` [III-2q, bis(N-(2-thienylmethyl)ethylthiocarbamoyl)disulphide], the “Aldh2 (IC50, μM) ± SE” value (ALDH2; Table III) is reported as “No inhibition” and the IC50 (ALDH1a1; [1]) is reported as 0.39 ± 0.31 µM.

For `CCN(Cc1ccsc1)C(=S)SSC(=S)N(CC)Cc1ccsc1` [III-2r, bis(N-(3-thienylmethyl)ethylthiocarbamoyl)disulphide], the “Aldh2 (IC50, μM) ± SE” value (ALDH2; Table III) was “No inhibition” and the IC50 (ALDH1a1; [1]) was 0.17 ± 0.1 µM.

Compound `O=C(Oc1ccc([N+](=O)[O-])cc1)N1CCN(Cc2cccc(Oc3ccccc3)c2)CC1` [JZL-195, reference compound] has an IC50 (human FAAH (hFAAH)) of 0.04 ± 0.02 µM.

“N-Acetyl-L-Cysteamine [Compound 5, reference compound]” was tested, and the “ALDH2 inhibitory activity (in words)” value (ALDH2) was “none of them showed any activity” and the “activity against ALDH1a1 (in words)” value (ALDH1a1) was “none of them showed any activity”.

For “bis(N-4-ethoxycarbonylbenzylethylthiocarbamoyl)disulphide [II-2l]”, the “FAAH inhibitory activity (in words)” value (human FAAH (hFAAH)) was “devoid of anti-FAAH activity” and the IC50 (human MAGL (hMAGL)) was 5.03 ± 2.35 µM.

For “bis(N-4-hydroxybenzylethylthlocarbamoyl)disulfide [Compound I-2c]”, the IC50 (human FAAH (hFAAH)) was 38.2 ± 7.96 µM, the IC50 (human MAGL (hMAGL)) was 3.71 ± 1.28 µM and the IC50 (ALDH2; [3]) was 10.9 ± 0.61 µM. For the same compound, the IC50 (ALDH1a1; [2]) was 0.21 ± 0.04 µM and the “catalytic activity of inhibited ALDH1a1 after addition of dithiothreitol” value (ALDH1a1; addition of dithiothreitol) was “completely restored”.
